{
  "source": "patent US20190275040A1",
  "about": "“COMPOUNDS AND METHODS FOR TREATING OR PREVENTING ALZHEIMER'S DISEASE” (YALE UNIVERSITY, priority 2016, published 2019)",
  "test_system": "APP/PS1 transgenic mice",
  "assay": "Learning and memory (novel object recognition, Morris water maze) in APP/PS1 transgenic mice",
  "assay_type": "in vivo, mouse",
  "details": "12 month APP/PS1 mice, 25 mg/kg/d minipump i.p. infusion, 3-6 weeks",
  "protocol": "FIG. 5A plots the time mice spent interacting with a familiar and a novel object. Mean±SEM, n=10-16 mice. *, p<0.05; **, p<0.01 by two-way ANOVA, Sidak's multiple comparisons test. FIG. 5B depicts spatial learning and memory as examined by the Morris-Water-Maze after 30 swim trials to a hidden platform. A 60 second probe trial was performed 24 hours after completion of training. Time spent in the quadrant where the hidden platform had been located. Mean±SEM of n=7-23 mice. *, p<0.05; ***, p<0.001. Dashed lines in FIGS. 5A-5B are chance (no memory). […]\nThe efficacy of PF-719 Pyk2 inhibitor to rescue AD transgenic phenotypes was tested by infusion for 6 weeks in 12 month APP/PS1 transgenic with pre-established memory deficits and WT mice, similar to the SAM 923 and Pyk2−/− experiments. […] The brains of these mice are analyzed for synapse density, gliosis and Aβ. […]\nMice were handled for five minutes a day for five days prior to experiment to reduce anxiety. […] Object choice was pseudorandom; the object was recorded as the familiar object for each animal. The mouse was then replaced in cage's center, not facing either object, and a total timer counted up to ten minutes. The mice were allowed to explore the object and the time it took to accumulate thirty seconds of total orofacial object exploration was recorded. […]",
  "data": [
    {"smiles": "CCOc1ccc2nc(SCc3nc(N)nc(N4CCOCC4)n3)sc2c1", "note": "[PF-719, 4-(((6-ethoxybenzo[d]thiazol-2-yl)thio)methyl)-6-morpholino-1,3,5-triazin-2-amine]", "values": [
      {"measurement": "learning and memory performance", "result": "significantly greater than Vehicle/untreated levels"}
    ]}
  ]
}
